What was measured:
EAE mice = experiment: Clinical signs of MOG-induced EAE, late treatment from day 9; assay type: in vivo, C57bl/6 mice; conditions: for percent of the maximal response: score difference relative to control score 2.4
Experimental: Eight-week-old female C57bl/6 mice were purchased from Harlan. The mice were housed under standard conditions in top filtered cages. Mice were fed a regular diet and given acidified water without antibiotics.
Disease was induced by immunization with the peptide encompassing amino acids 35-55 of rat MOG synthesis (Anaspec, Fremont, Calif.). Mice were injected subcutaneously (s.c.) at the flank, with a 200 μl emulsion containing 300 μg of MOG in complete Freund's adjuvant (CFA) enriched with 500 μg Mycobacterium tuberculosis H37Ra (Difco Laboratories, Detroit, Mich.). Pertussis toxin (List biological laboratories, California, USA), […], was injected intra-peritoneally (i.p.) immediately after the MOG injection and then 48 h later. Mice were examined daily. EAE was scored as follows: 0, no abnormality; 1, mild limp tail weakness (floppy tail); 2, tail paralysis; 3, tail paralysis and hind leg paresis; 4, hind leg paralysis or mild forelimb weakness; 5, quadriplegia or moribund state; 6, death.
Briefly, FTS (as powder) was diluted in chloroform (35.8 mg/ml of FTS=0.1 M) and kept in aliquots. The content (280 μl) of one aliquot was evaporated under nitrogen and then dissolved in 40 μl absolute ethanol and 15 μl NaOH; 2.5 ml of PBS was subsequently added. Each mouse received 0.1 ml of this solution daily (0.4 mg/mouse which on a per unit weight basis equates to 20 mg/kg) intraperitoneally (i.p.), starting from day 9 of disease induction, just before the clinical onset of paralysis.
EAE was induced in C57bl/6 mice with MOG and drug treatment started on day 9 of disease induction. The animals were divided into four (4) groups.

[1] = tested on: EAE lesions and blood-brain barrier disruption in the spinal cord; experiment: MR imaging of spinal cord (L1-S3) of EAE mice, T2-map and Gd-DTPA T1-weighted; assay type: in vivo, C57bl/6 mice; conditions: day 14 post EAE-induction; FTS 20 mg/kg/day i.p., GA 15 mg/kg/day s.c.; FIG. 2C
Experimental: The treatment effect was evaluated by MRI experiments which were conducted on day 14 after EAE-induction. […] During the MRI scanning, mice were anesthetized with isofluorane (3% for induction, 1-2% for maintenance) mixed with compressed air (1 l/min) delivered through a nasal mask. Once anesthetized, the animals were placed in a body-holder to assure reproducible positioning inside the magnet. Respiration rate was monitored and maintained throughout the experimental period at 60-80 breaths/min. MRI experiments were performed on a 7T Bruker scanner (70/30 USR Bruker BioSpec, Germany) equipped with a gradient coil system capable of producing pulse gradients of up to 400 mT/m in each of the three directions. […]
T2-map MRI was used to deliberate the EAE lesions (demyelination) in the mice's spinal cords. Lesion volume was calculated from the T2-map MR images using the MATLAB® image processing toolbox. […] From that value was then subtracted the value of a normal appearing parallel tissue in the same slice which was measured in the same way as described above. […]
The gadolinium enhancement obtained from T1-weighted MRI reflects the infusate distribution in the mice's blood-brain barrier within the spinal cord. Thus, the volume (in mm^3) of infusate distribution was calculated from the T1-weighted MRI. […] The volume in the regions of interest was counted and accumulated for each mouse.

[2] = tested on: infiltration and demyelination in the spinal cords of EAE mice; experiment: Histology of lumbar spinal cord (H&E, LFB); assay type: in vivo, C57bl/6 mice; conditions: day 16 post EAE-induction; FTS 20 mg/kg/day i.p., GA 15 mg/kg/day s.c.
From the text: The lumbar part of the mice's spinal cord (n=8 mice for each group) was fixed in 4% paraformaldehyde (Electric Microscopy Science, PA, USA) and embedded in paraffin and cut in 4-μm-thick axial sections. Sections were stained with hematoxylin and eosin (H&E) and luxol fast blue (LFB) and then mounted in histomount medium (Invitrogen Corporation, CA, USA). Images were examined under a light microscope and captured with a NikonDS-5Mcamera (NikonInstech, Tokyo, Japan). Quantification of the inflammation and demyelination was conducted as previously described (Mi, et al., 2007). Briefly, to quantify inflammation H&E-stained nuclei were imaged, counted and percentage of stained cells per field were calculated. Similarly the percentage of regions with demyelination per field was estimated by counting the LFB-stained images. Imaging was aided by the use of Image-Pro Plus 5.1 software (MediaCybernetics, Silver, Spring, Md.).

Foxp3 = experiment: Western blotting of splenocyte lysates: Foxp3; assay type: in vivo, mice; conditions: day 17 post EAE-induction; FTS 20 mg/kg/day i.p., GA 15 mg/kg/day s.c.
From the text: (§1) On day 16 post EAE-induction, the brains and splenocytes of the mice (n=4 per each group) were homogenized and their lysates were subjected to sodium dodecyl sulfate-olyacrylamide gel electrophoresis followed by western blotting, as described (Goldberg and Kloog, 2006), with one of the following antibodies: pan-RAS (Ab-3; Calbiochem, San Diego, Calif.), anti-CD3 Ab (AbD serotec, Oxford, UK), anti-ERK (Santa Cruz Biotechnology, CA. USA), anti phospho-ERK (Sigma, USA), anti-tubulin Ab and anti-Foxp3 Ab (eBioScience, San Diego, Calif.). Protein bands were visualized by enhanced chemiluminescence (ECL) kit (Amersham Pharmacia Biotech, Arlington Heights, Ill.) and quantified by densitometry with Image EZQuant-Gel software (Copyright©2005, EZQuant Ltd). Lysates were used to determine Ras-GTP by the glutathione S-transferase (GST)-Ras-binding domain pulldown assay, and this was followed by western blotting with anti pan-Ras Ab.

phospho-Erk = experiment: Western blotting of splenocyte lysates: phospho-Erk; assay type: in vivo, mice; conditions: FTS 20 mg/kg/day i.p., GA 15 mg/kg/day s.c.
From the text: as §1

[3] = tested on: lymphocytes from the spleens of EAE mice; experiment: Ex vivo BrdU proliferation response of EAE splenocytes to antigens and mitogens; assay type: cell-based; conditions: in vivo FTS 20 mg/kg/day i.p., GA 15 mg/kg/day s.c.
Experimental: Pooled single cell suspension of spleens were obtained on […] post-EAE induction and assayed in vitro for their response to antigens and mitogens ([…], lipopolysacharide—LPS, and concanavalin A—ConA) by a proliferation assay. The assay was carried out by plating in each microculture well 2×10^4 cells in 0.1 ml of proliferation medium containing optimal concentration of antigens as follows: 25 μg/ml MOG, 50 μg/ml MOG, 20 μg/ml LPS or 1 μg/ml of ConA. The experiments were performed in triplicate in 96-well, flat-bottom, microtiter plates (Costar, Cambridge, USA). Cultures were incubated for 72 h in humidified atmosphere of 95% air and 5% CO2 at 37° C. Cell proliferation was determined by Colorimetric Bromodeoxyuridine (BrdU) Cell Proliferation kit (Calbiochem, Darmstadt, Germany) following manufacturer's instructions. In brief, 20 μl of BrdU labeling solution diluted 1:2000 in culture medium were added to each well for the last 18 h of culture. After removing the medium, cells were fixed, and anti-BrdU peroxidase working solution was added to each well and incubated for one (1) hour at room temperature. Following several washes, substrate solution was added, color was developed, and absorbance was measured with a microplate reader at 450 nm. The stimulation index (S.I.) was calculated as follows: the mean absorbance of cells culture in the presence of antigen divided by the mean absorbance of cells in the absence of antigen.
Lymphocytes were obtained from the spleens of mice on day 16 post immunization with MOG and subjected to ex vivo BrdU incorporation proliferation assays. […] The cells, obtained from the four groups described above, were stimulated with various mitogens ex vivo for 48 h.

Ras = experiment: Western blotting of splenocyte lysates: Ras; assay type: in vivo, mice; conditions: FTS 20 mg/kg/day i.p., GA 15 mg/kg/day s.c.
From the text: as §1

[4] = 0-6 scale, FTS 20 mg/kg/day i.p., GA 100 mg/kg/day s.c., daily from day 9, FIG. 1A
[5] = Example II: 0-6 scale, FTS 60 mg/kg/day p.o., GA 15 mg/kg/day s.c., FIG. 7A
[6] = Example II: FTS 60 mg/kg/day p.o., GA 15 mg/kg/day s.c., daily from day 9
[7] = FTS 20 mg/kg/day i.p., GA 15 mg/kg/day s.c.
[8] = FTS 20 mg/kg/day i.p., GA 15 mg/kg/day s.c., daily from day 9, four experiments
[9] = FTS 20 mg/kg/day i.p., GA 100 mg/kg/day s.c., daily from day 9, three experiments

Compound | maximal average clinical score (EAE mice; 0-6 scale, FTS 20 mg/kg/day i.p., GA 15 mg/kg/day s.c., daily from day 9, FIG. 1B) | maximal average clinical score (EAE mice; [4]) | maximal average clinical score (EAE mice; [5]) | animals that developed clinical signs of EAE (EAE mice; [6]) | maximal average clinical score (EAE mice; Example III: 0-6 scale, FTS 40 mg/kg/day s.c. (dissolved in GA in the combination), GA 15 mg/kg/day s.c., FIG. 7B) | animals that developed clinical signs of EAE (EAE mice; Example III: FTS 40 mg/kg/day s.c. (dissolved in GA in the combination), GA 15 mg/kg/day s.c., daily from day 9) | clinical score as control score (2.4) minus treated score (EAE mice; [7]) | animals that developed clinical signs of EAE (EAE mice; [8]) | animals that developed clinical signs of EAE (EAE mice; [9]) | percent of the maximal response (EAE mice; [7]) | decrease in total volume of T2-map lesions per mouse vs. control [1] | decrease in regions of demyelination (LFB) vs. control [2] | reduction of regions with inflammatory infiltrates (H&E nuclei counts) vs. control [2] | increase of Foxp3 level in splenocytes vs. control (Foxp3) | decrease in phospho-Erk level in splenocytes vs. GA alone (phospho-Erk) | decrease in phospho-Erk level in splenocytes vs. control (phospho-Erk) | decrease in lymphocyte proliferation vs. control ([3]; stimulated with 25 μg/ml MOG) | decrease in lymphocyte proliferation vs. control ([3]; stimulated with 50 μg/ml MOG) | decrease in Ras level in splenocytes vs. control (Ras)
CC(C)=CCC/C(C)=C/CC/C(C)=C/CSc1ccccc1C(=O)O [FTS, S-trans,trans-farnesylthiosalicylic acid] | 2.15±0.45 | 1.07±0.6 | 1±0.33 | 60% | 1.72±0.45 | 90% | 0.25±0.11 | 82.5% | 60.7% | 25% | 30.1%±7% | 59.18±10.6% | 28.44%±11.2% | No significant elevation | 51.38%±5.6% | 50.18%±9.1% | 17.85%±5.34% | 29.9%±9.18% | 
L-glutamic acid polymer with L-alanine, L-lysine and L-tyrosine, acetate (salt) [GA] |  | 1.4±0.43 | 1.3±0.213 | 70% |  |  | 0.02±0.05 | 77.5% | 70.3% | 2% |  | 48.97%±6.78% | 33.12%±6.98% | No significant elevation |  | does not reduce significantly | 43.19%±6.35% | 41.22%±6.12% | does not reduce significantly

— patent US20130035390A1, “TREATMENT OF MULTIPLE SCLEROSIS” (Ramot at Tel-Aviv University Ltd., priority 2010, published 2013)
